According to ChEMBL document CHEMBL5465560, “Selectivity Literature for EUbOPEN Chemogenomic Library” (2024):

Tests used:
[1] = molecular target: T1, Serine/threonine-protein kinase Sgk1 (Homo sapiens) (UniProt O00141); assay: Selectivity interaction (KinomeScan (DiscoverX)) EUB0001049a SGK1; details: at 1 µM
T1 sequence (whole entry): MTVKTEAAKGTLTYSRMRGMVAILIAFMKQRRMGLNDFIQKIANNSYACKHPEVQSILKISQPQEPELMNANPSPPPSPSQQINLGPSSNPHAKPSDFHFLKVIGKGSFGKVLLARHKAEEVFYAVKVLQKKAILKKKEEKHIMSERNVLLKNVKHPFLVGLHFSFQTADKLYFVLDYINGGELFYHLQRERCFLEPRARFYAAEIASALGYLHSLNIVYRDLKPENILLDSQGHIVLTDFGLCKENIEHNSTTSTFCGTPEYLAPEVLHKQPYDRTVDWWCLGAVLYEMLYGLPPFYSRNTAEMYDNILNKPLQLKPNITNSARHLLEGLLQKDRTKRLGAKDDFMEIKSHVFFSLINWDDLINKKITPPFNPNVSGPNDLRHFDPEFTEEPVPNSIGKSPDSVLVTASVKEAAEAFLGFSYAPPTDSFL

[2] = molecular target: Rho-associated protein kinase 1 (Homo sapiens) (UniProt Q13464); assay: Selectivity interaction (KinomeScan (DiscoverX)) EUB0000229b ROCK1; details: at 10 µM
Rho-associated protein kinase 1 (Homo sapiens), sequence (Q13464 2-1354 limits assumed): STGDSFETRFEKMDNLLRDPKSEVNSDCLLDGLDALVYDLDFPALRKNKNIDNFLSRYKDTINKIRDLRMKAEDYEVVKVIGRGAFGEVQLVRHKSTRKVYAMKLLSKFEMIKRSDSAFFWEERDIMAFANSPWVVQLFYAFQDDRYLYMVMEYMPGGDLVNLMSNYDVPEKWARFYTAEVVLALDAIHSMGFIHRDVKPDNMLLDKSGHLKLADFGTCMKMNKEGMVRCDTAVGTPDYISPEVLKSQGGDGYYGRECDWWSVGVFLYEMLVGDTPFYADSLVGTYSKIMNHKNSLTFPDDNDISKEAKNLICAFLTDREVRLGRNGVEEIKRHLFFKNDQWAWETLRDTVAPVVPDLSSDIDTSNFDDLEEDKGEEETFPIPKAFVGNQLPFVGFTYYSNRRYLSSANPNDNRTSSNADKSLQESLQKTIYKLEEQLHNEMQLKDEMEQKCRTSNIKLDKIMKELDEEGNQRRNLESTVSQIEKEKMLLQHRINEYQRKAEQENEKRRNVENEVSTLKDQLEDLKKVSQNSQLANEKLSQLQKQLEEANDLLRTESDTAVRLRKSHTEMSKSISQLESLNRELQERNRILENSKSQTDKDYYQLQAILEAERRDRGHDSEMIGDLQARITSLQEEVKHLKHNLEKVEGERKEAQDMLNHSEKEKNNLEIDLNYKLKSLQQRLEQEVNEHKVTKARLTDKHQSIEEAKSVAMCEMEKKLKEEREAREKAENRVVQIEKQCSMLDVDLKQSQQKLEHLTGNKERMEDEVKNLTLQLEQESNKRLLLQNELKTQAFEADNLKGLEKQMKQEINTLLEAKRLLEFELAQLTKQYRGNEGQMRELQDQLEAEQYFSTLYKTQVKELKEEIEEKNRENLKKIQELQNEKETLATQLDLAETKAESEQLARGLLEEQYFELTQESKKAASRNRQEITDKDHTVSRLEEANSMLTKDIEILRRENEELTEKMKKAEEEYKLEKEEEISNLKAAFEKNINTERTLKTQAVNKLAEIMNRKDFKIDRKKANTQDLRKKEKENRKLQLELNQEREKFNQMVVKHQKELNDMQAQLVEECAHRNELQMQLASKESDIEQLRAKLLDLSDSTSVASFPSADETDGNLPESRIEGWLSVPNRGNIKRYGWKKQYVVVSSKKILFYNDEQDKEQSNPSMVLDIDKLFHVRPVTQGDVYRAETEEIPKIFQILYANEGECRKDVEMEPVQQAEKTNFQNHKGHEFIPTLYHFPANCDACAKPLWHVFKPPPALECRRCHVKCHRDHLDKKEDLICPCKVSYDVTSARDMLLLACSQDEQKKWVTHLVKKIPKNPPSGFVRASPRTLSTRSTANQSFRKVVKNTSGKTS

[3] = molecular target: T2, Serine/threonine-protein kinase DCLK1 (Homo sapiens) (UniProt O15075); assay: Selectivity interaction (KinomeScan (DiscoverX)) EUB0000045b DCLK1
T2 sequence (whole entry): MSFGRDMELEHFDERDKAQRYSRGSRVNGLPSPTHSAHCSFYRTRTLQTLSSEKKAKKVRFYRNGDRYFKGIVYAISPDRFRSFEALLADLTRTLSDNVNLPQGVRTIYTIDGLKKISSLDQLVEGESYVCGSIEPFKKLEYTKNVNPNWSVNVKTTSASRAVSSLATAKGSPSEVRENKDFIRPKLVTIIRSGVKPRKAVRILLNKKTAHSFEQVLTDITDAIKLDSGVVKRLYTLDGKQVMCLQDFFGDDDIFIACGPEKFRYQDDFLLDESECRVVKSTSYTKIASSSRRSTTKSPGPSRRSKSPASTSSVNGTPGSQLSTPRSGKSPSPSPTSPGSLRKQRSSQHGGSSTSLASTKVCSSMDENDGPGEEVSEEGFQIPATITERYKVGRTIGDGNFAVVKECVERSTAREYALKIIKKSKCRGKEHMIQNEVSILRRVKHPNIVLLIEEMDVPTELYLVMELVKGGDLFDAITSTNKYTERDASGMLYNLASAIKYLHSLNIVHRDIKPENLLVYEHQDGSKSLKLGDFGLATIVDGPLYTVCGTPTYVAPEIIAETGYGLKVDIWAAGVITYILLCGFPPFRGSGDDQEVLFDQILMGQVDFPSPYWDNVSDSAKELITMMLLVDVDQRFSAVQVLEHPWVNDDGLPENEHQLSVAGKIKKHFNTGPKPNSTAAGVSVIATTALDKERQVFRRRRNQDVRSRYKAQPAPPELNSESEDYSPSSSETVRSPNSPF

[4] = molecular target: T3, Cyclin-dependent kinase-like 5 (Homo sapiens) (UniProt O76039); assay: Selectivity interaction (KinomeScan (DiscoverX)) EUB0000607a CDKL5; details: at 10 µM
T3 sequence (whole entry): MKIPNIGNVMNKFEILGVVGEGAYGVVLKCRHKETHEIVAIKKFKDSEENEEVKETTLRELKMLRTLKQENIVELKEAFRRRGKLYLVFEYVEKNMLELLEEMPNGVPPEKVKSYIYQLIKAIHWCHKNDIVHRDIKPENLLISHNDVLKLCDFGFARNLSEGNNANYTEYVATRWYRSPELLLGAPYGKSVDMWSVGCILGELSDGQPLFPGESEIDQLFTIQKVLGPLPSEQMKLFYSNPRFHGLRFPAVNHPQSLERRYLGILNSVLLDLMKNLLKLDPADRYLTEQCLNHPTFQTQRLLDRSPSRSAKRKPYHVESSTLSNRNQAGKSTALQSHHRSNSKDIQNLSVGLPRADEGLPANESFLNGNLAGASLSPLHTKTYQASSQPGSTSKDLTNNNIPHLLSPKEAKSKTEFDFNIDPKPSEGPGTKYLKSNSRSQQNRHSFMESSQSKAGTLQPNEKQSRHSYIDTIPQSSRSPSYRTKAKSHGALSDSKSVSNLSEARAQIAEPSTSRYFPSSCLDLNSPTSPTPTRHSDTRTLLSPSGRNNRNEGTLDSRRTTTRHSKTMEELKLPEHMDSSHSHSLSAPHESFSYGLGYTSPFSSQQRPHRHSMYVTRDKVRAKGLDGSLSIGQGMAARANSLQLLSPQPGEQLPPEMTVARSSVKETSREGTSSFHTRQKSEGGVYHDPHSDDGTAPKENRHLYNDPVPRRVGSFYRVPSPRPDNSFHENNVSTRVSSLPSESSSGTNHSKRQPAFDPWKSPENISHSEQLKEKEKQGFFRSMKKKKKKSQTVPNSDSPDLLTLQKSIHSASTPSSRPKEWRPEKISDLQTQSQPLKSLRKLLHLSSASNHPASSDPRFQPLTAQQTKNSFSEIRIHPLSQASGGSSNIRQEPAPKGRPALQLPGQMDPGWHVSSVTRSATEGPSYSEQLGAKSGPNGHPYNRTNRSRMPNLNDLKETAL

SRSF protein kinase 1 = SRSF protein kinase 1 (Homo sapiens, UniProt Q96SB4); assay: Selectivity interaction (Kinase panel (DSF assay)) EUB0001558a SRPK1
SRSF protein kinase 1, sequence (Q96SB4 whole entry): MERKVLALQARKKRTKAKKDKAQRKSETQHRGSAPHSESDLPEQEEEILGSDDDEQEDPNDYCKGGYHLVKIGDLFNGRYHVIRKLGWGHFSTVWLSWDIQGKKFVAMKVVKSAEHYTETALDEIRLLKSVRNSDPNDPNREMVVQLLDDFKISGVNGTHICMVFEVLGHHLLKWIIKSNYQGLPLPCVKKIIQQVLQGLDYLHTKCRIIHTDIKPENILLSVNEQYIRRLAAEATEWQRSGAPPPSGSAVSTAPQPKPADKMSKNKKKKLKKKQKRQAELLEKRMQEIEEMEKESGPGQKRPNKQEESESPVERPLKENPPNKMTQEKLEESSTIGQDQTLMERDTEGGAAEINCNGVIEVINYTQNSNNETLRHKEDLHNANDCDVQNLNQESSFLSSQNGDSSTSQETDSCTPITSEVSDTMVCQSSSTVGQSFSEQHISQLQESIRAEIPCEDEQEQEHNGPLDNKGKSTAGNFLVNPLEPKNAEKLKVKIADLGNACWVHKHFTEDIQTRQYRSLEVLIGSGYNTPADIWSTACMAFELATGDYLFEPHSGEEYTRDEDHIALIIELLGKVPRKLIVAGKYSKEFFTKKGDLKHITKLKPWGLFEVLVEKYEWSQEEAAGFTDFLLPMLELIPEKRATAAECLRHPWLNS

Compound `COc1cc(Nc2nc(C)cc(-c3cnn4nc(OC)ccc34)n2)cc(C(F)(F)F)c1` has a % of control [1] of 94%.

`COc1cc(N(C)c2ccnc3ccc(C(F)(F)F)cc23)cc(OC)c1OC` gave a % binding [2] of 78%.

`C=CC(=O)Nc1cc(-n2c(=O)ccc3cnc4ccc(-c5ccc(NS(C)(=O)=O)cc5)cc4c32)ccc1C` showed a % of control ([3]; at 1 µM) of 100% and a % of control ([3]; at 10 µM) of 84%.

Work on `CNC(=O)Nc1ccc(-c2nc(N3CC4CCC(C3)O4)c3cnn(C4CCC5(CC4)OCCO5)c3n2)cc1` yielded a % of control [4] of 79%.

For `CC(C)(O)[C@H](F)CN1Cc2cc(NC(=O)c3cnn4cccnc34)c(N3CCOCC3)cc2C1=O`, the dTM (SRSF protein kinase 1) was 1.1 K.
